Target: T1, α4β1 integrin (Homo sapiens, UniProt P05556+P13612)
T1 construct: endogenous in cells; host or cells: U-937 cells
Assay: U-937 Cell Adhesion to Human VCAM-1 (α4β1 Binding Assay)
Format: cell-based
Conditions: read-out: IC50 values in the α4β1 assays
Method: Recombinant human soluble VCAM-1. (R&D Systems Ltd., UK) at 2 μg/ml in PBS was immobilized overnight onto microtiter plates. Unbound VCAM-1 was washed away and VCAM-1 coated plates were blocked with bovine serum albumin (BSA) 2.5% in PBS for 2 h at room temperature. U-937 cells were labelled with 5-carboxyfluorescein diacetate (5-CFDA) in order to detect bound cells to the wells. Test compounds were added to the wells followed by U-937 cells and the adhesion assay was performed for 1 h at 37° C. Following incubation, the wells were emptied and washed. Inhibition of binding was measured by the quantity of fluorescence bound to the plate for each of the various concentrations of test compound, as well as for controls containing no test compound, with a Cytofluor 2300 fluorescence measurement system.

T1 sequence (P13612 34-1032): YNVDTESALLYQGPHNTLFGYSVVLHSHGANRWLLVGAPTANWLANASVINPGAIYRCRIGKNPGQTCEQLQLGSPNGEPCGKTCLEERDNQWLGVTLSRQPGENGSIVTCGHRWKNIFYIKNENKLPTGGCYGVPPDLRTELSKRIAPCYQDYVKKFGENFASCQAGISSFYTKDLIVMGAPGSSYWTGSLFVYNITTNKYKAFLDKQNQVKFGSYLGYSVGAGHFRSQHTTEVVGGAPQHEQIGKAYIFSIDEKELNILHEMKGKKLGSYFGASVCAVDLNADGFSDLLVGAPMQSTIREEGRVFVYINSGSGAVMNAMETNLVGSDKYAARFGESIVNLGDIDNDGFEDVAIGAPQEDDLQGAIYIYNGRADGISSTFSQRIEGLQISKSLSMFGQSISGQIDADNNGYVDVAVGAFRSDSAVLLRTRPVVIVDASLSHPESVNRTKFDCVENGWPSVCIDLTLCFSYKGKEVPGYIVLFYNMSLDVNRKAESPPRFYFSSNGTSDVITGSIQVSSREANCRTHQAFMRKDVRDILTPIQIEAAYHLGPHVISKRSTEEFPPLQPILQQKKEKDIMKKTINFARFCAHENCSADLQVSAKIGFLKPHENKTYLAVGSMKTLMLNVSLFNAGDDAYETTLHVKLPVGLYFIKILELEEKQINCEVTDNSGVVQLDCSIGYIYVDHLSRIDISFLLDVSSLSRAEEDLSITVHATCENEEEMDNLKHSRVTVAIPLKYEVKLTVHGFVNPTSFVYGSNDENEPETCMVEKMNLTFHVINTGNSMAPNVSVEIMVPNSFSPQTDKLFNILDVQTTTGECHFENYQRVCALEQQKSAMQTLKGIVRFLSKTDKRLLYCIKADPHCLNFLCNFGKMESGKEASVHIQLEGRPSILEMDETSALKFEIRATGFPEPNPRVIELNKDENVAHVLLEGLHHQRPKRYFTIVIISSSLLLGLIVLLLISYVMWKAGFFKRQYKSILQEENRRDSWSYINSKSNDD
T1 sequence (P05556 21-798): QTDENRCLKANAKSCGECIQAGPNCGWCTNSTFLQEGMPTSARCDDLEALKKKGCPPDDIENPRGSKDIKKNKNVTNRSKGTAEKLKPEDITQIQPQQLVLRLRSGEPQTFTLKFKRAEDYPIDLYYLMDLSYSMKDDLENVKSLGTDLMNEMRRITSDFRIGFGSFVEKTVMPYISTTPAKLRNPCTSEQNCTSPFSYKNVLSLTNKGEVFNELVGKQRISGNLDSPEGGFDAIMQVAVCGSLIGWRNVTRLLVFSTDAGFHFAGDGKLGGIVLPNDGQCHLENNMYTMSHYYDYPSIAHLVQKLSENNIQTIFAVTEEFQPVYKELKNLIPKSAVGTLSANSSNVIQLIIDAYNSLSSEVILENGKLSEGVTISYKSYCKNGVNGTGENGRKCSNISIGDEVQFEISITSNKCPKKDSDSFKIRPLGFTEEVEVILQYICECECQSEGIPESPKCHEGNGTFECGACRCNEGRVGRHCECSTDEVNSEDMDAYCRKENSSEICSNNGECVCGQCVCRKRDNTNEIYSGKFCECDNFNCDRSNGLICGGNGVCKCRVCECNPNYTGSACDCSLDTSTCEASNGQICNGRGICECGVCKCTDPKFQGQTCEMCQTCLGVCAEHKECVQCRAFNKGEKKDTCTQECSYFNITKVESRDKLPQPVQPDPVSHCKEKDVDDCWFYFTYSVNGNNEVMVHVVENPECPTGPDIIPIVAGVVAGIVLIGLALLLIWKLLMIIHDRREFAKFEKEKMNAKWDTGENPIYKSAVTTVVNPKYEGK

Structure (SMILES)	IC50
O=C(Nc1ccc(C[C@H](NS(=O)(=O)NCc2ccccc2)C(=O)O)cc1)c1c(Cl)cccc1Cl [Example 3, (2S)-2-(N-benzylaminosulfonilamino)-3-[4-(2,6dichlorobenzoylamino)phenyl]propionic acid]	< 100 nM
CC(C)N(C1CCCC1)S(=O)(=O)N[C@@H](Cc1ccc(NC(=O)c2c(Cl)cncc2Cl)cc1)C(=O)O [Example 71, (2S)-2-({[cyclopentyl(isopropyl)amino]sulfonyl}amino)-3-{4-[(3,5-dichloroisonicotinoyl)amino]phenyl}propionic acid]	< 100 nM
CC(C)CN([C@H](C)c1ccccc1)S(=O)(=O)N[C@@H](Cc1ccc(NC(=O)c2c(Cl)cncc2Cl)cc1)C(=O)O [Example 77, (2S)-3-{4-[(3,5-dichloroisonicotinoyl)amino]phenyl}-2-[({isobutyl[(1R)-1-phenylethyl]amino}sulfonyl)amino]propionic acid]	< 100 nM
O=C(Nc1ccc(C[C@H](NS(=O)(=O)Nc2ccccc2S(=O)(=O)c2ccccc2)C(=O)O)cc1)c1c(Cl)cncc1Cl [Example 81]	< 100 nM

From patent US20070179183A1 (priority 2003, published 2007)
